Results as given in the CheMixHub viscosity set.
“And” between values parts separate entries of the source, which are not always exact repeats. Equal entries are not always repeated. ± gives the uncertainty stated by the source.

Assay: xn = mol fraction of the nth substance listed

O=C[C@H](O)[C@H](O)[C@H](O)CO + C[N+](C)(C)CCO.[Cl-]
100 kPa, x2 = 0.6
Conditions	viscosity [mPa·s]
313.2 K	575.5 ± 30
318.2 K	374.3 ± 19

O=S(=O)(Cl)Cl + Cc1cc(C)cc(C)c1
298.15 K, 101 kPa
Conditions	viscosity [mPa·s]
x1 = 0.172	0.6735 ± 0.017
x1 = 0.323	0.6885 ± 0.018
x1 = 0.515	0.6997 ± 0.018
x1 = 0.645	0.7028 ± 0.018
x1 = 0.669	0.7025 ± 0.018
x1 = 0.804	0.6976 ± 0.018

Cc1cccc(C)c1 + Cc1ccc(C)cc1
viscosity [mPa·s], 101.3 kPa
Conditions	298.15 K	303.15 K
x1 = 0.0856	–	0.5666 ± 0.0049
x1 = 0.0857	0.6046 ± 0.0052	–
x1 = 0.1427	–	0.5659 ± 0.0049
x1 = 0.1428	0.6026 ± 0.0052	–
x1 = 0.2528	0.5998 ± 0.0052	0.5651 ± 0.0049
x1 = 0.3046	–	0.5648 ± 0.0049
x1 = 0.3922	0.5968 ± 0.0051	0.5643 ± 0.0049
x1 = 0.474	0.5955 ± 0.0051	0.5641 ± 0.0049
x1 = 0.5823	–	0.5636 ± 0.0049
x1 = 0.5824	0.5942 ± 0.0051	–
x1 = 0.6995	0.5935 ± 0.0051	0.5627 ± 0.0049
x1 = 0.8337	0.5928 ± 0.0051	–
x1 = 0.8339	–	0.5614 ± 0.0049
x1 = 0.9538	0.5899 ± 0.0051	0.5602 ± 0.0049

O=S1(=O)CCCC1 + Cc1ccc(C)cc1
viscosity
Conditions	x2 = 0.1118	x2 = 0.2206	x2 = 0.3266	x2 = 0.4301	x2 = 0.531	x2 = 0.6293	x2 = 0.7252	x2 = 0.8191	x2 = 0.9106
303.15 K, 101 kPa	6.156 ± 0.15 mPa·s and 6.156 ± 0.14 mPa·s	4.093 ± 0.088 mPa·s and 4.093 ± 0.084 mPa·s	2.887 ± 0.056 mPa·s and 2.887 ± 0.053 mPa·s	2.143 ± 0.038 mPa·s and 2.143 ± 0.035 mPa·s	1.608 ± 0.026 mPa·s and 1.608 ± 0.023 mPa·s	1.253 ± 0.018 mPa·s and 1.253 ± 0.016 mPa·s	0.989 ± 0.013 mPa·s and 0.9893 ± 0.012 mPa·s	0.812 ± 0.01 mPa·s and 0.8122 ± 0.0088 mPa·s	0.673 ± 0.008 mPa·s and 0.6727 ± 0.0072 mPa·s
303.15 K, 101.3 kPa	6.156 ± 0.13 mPa·s	4.093 ± 0.091 mPa·s	2.887 ± 0.066 mPa·s	2.143 ± 0.049 mPa·s	1.608 ± 0.038 mPa·s	1.253 ± 0.03 mPa·s	0.9893 ± 0.025 mPa·s	0.8122 ± 0.021 mPa·s	0.6727 ± 0.018 mPa·s
313.15 K, 101 kPa	4.883 ± 0.11 mPa·s	3.341 ± 0.069 mPa·s	2.384 ± 0.044 mPa·s	1.791 ± 0.03 mPa·s	1.351 ± 0.02 mPa·s	1.066 ± 0.014 mPa·s	0.8516 ± 0.01 mPa·s	0.7111 ± 0.0081 mPa·s	0.5929 ± 0.0067 mPa·s
323.15 K, 101 kPa	3.964 ± 0.094 mPa·s and 3.964 ± 0.091 mPa·s	2.74 ± 0.06 mPa·s and 2.74 ± 0.057 mPa·s	2 ± 0.04 mPa·s and 2 ± 0.037 mPa·s	1.526 ± 0.028 mPa·s and 1.526 ± 0.025 mPa·s	1.166 ± 0.019 mPa·s and 1.166 ± 0.017 mPa·s	0.925 ± 0.014 mPa·s and 0.9254 ± 0.013 mPa·s	0.747 ± 0.011 mPa·s and 0.7473 ± 0.0094 mPa·s	0.627 ± 0.009 mPa·s and 0.6269 ± 0.0075 mPa·s	0.53 ± 0.007 mPa·s and 0.53 ± 0.0064 mPa·s
323.15 K, 101.3 kPa	3.964 ± 0.089 mPa·s	2.74 ± 0.063 mPa·s	2 ± 0.047 mPa·s	1.526 ± 0.036 mPa·s	1.166 ± 0.028 mPa·s	0.9254 ± 0.023 mPa·s	0.7473 ± 0.019 mPa·s	0.6269 ± 0.017 mPa·s	0.53 ± 0.015 mPa·s

Nc1ccccc1Cl + Cc1ccc(Cl)cc1
viscosity [mPa·s], 101 kPa
Conditions	x1 = 0.1012	x1 = 0.2102	x1 = 0.3125	x1 = 0.4056	x1 = 0.5142	x1 = 0.6125	x1 = 0.6952	x1 = 0.7859	x1 = 0.8859
303.15 K	0.9617 ± 0.024	1.175 ± 0.029	1.405 ± 0.034	1.644 ± 0.039	1.963 ± 0.046	2.287 ± 0.053	2.586 ± 0.059	2.936 ± 0.067	3.344 ± 0.076
308.15 K	0.8921 ± 0.023	1.097 ± 0.027	1.318 ± 0.032	1.543 ± 0.037	1.833 ± 0.043	2.12 ± 0.049	2.377 ± 0.055	2.674 ± 0.061	3.014 ± 0.069
313.15 K	0.8377 ± 0.022	1.031 ± 0.026	1.238 ± 0.03	1.446 ± 0.034	1.711 ± 0.04	1.968 ± 0.046	2.195 ± 0.051	2.451 ± 0.056	2.737 ± 0.063
318.15 K	0.7836 ± 0.021	0.9716 ± 0.024	1.17 ± 0.029	1.368 ± 0.033	1.616 ± 0.038	1.852 ± 0.043	2.054 ± 0.048	2.275 ± 0.053	2.511 ± 0.058
